System: E. multilocularis metacestodes
Assay: PGI assay: phosphoglucose isomerase release from damaged metacestodes
Format: cell-based, Echinococcus multilocularis
Details: 10 μM, 5 days, single wells, relative to DB1127 (10 μM)
Description: The preparation of E. multilocularis metacestode material (strain H95) from intraperitoneally (i.p.) infected BALB/c mice was performed as described earlier. Metacestode vesicles were used for in vitro drug screening when they reached 2 to 4 mm in diameter.
For screening of the Malaria Box against E. multilocularis metacestodes, the PGI screening assay was applied that measures the release of the enzyme phosphoglucose isomerase (PGI) upon physical impairment of metacestodes. The screening setup was done in 24 well plates as described by Stadelmann et al. For initial screening, each drug was applied at 10 μM to metacestodes in single wells. As a positive control-drug, the dicationic diguanidino compound DB1127 (10 μM) was used and 0.1% DMSO was added as negative control. Metacestodes were cultured in the presence of the compounds for 5 days, after which PGI release was quantified exactly as stated in Stadelmann et al. […] Averages, standard deviations and EC50 values were calculated in Microsoft Excel 2010.

SMILES	PGI (% of DB1127 at 10 uM)
Cc1sc2ncnc(Sc3nc4ccccc4[nH]3)c2c1C [MMV019266]	-32.46%
Cl.Clc1cc(Br)ccc1-c1ccc(CNCC2CCNCC2)o1 [MMV019918]	-10.89%
Oc1ccc(-c2nc(-c3ccc4oc5ccc(-c6[nH]c(-c7ccc(O)cc7)nc6-c6ccccc6)cc5c4c3)c(-c3ccccc3)[nH]2)cc1 [MMV000753]	-5.15%
COc1ccc(CN2CCCC(C(=O)c3ccc(C(F)(F)F)cc3)C2)c(O)c1 (stereo not drawn) [MMV666060]	-1.92%
CCC(O)c1ccc(Br)cc1NC(=O)c1cccc(Cl)c1 (stereo not drawn) [MMV020654]	-1.89%
CC(C)(C)c1ccc(C(=O)Nc2c3c(nn2-c2cccc(Cl)c2)CSC3)cc1 [MMV666123]	-7.56%
COc1cccc(NC(=O)[C@H](C(C)C)n2c(=O)[nH]c3ccccc3c2=O)c1 [MMV665878]	-74.00%
CCCCCCc1cc2cc(-c3nc4ccccc4[nH]3)c(=Nc3ccccc3C)oc2cc1O [MMV666597]	-1.88%
COc1cccc(-c2nn(C)c3sc(C(=O)NCCN4CCN(c5ccccc5F)CC4)cc23)c1 [MMV019064]	-17.87%
Cc1ccc(Cl)cc1N1CCN(CCCNC(=O)C2CCN(c3nc4ccccc4[nH]3)CC2)CC1 [MMV019746]	-24.98%
CCOc1cc(Cl)c(C(C)NC(=O)c2ccccc2)cc1OCC (stereo not drawn) [MMV665800]	-123.29%
Cc1cc(C)c2nc(N3CCC(C(=O)NCCCN4CCC(N5CCCCC5)CC4)CC3)sc2c1 [MMV019780]	36.03%
COc1ccc(-c2cc3c(SCC(=O)Nc4cc(C(F)(F)F)ccc4Cl)nccn3n2)cc1 [MMV396679]	-59.06%
COc1ccc(C(=O)C(CCC(CNC(C)(C)C)C(=O)c2ccc(OC)cc2)CNC(C)(C)C)cc1 (stereo not drawn) [MMV007591]	-0.71%
CCOc1c(Cl)cc(CNCC(O)c2ccccc2)cc1OC (stereo not drawn) [MMV396632]	5.30%
CC(C)(C)CC(C)(C)NCC(O)COc1ccc(Cl)cc1Cl (stereo not drawn) [MMV396794]	97.35%
Cc1cc(Nc2ccc(C)c(Cl)c2)n2nc(C(F)(F)F)nc2n1 [MMV665874]	-25.13%
Cc1ccc(C(=O)c2oc3ccc4c(C)cc(=O)oc4c3c2C)cc1 [MMV086103]	-6.30%
CC(=O)c1sc(NC(=O)Nc2ccc(C)cc2C)nc1C [MMV665894]	-2.69%
CC(=O)c1ccc(NC(=O)CSc2nc(-c3ccccc3Cl)ns2)cc1 [MMV666124]	-5.85%

SMILES	PGI (% of DB1127 at 10 uM)
O=C(Nc1ccc(-c2nc3cc4ccccc4cc3[nH]2)cc1)c1cccc(Br)c1 [MMV019241]	-30.92%
Cc1ccc(OCCCCCCNCCO)c(C)c1 [MMV666020]	2.96%
FC(F)(F)c1cccc(CNC2CCN(CCc3ccccc3)CC2)c1 [MMV665979]	-152.47%
CCOC(=O)c1c[nH]c2c(CC)cccc2c1=O [MMV498479]	-7.93%
Cc1cc(=O)oc2c1ccc1oc(C(=O)c3ccccc3)c(C)c12 [MMV006753]	-7.57%
CCc1ccc(Nc2cc(C)c3ccc(O)cc3n2)cc1.Cl [MMV000570]	-6.94%
CC1CCCCN1CCCNC(=O)c1ccc2c(c1)sc1nc(-c3ccc(F)cc3)cn12 (stereo not drawn) [MMV000634]	-120.82%
OC1CCCCC1C1(NC(=S)Nc2ccccc2)CCCCC1 (stereo not drawn) [MMV665980]	-9.51%
COc1cccc(C(=O)Nc2ccc(-c3nc4ccccc4[nH]3)cc2)c1 [MMV019762]	-25.80%
COc1ccc(C(O)(CCC(C)C)C(CN2CCOCC2)c2ccc(Cl)cc2)cc1.Cl (stereo not drawn) [MMV000617]	-8.60%
C=CCc1c(C)nc2ccccc2c1O [MMV006913]	-48.01%
COc1cccc(C2(C)Nc3ccccc3-c3nc4ccccc4n32)c1 (stereo not drawn) [MMV396719]	6.50%
COc1nc(Nc2ccc(C(C)C)cc2)nc(OC)n1 [MMV007808]	-19.50%
COc1ccc(C=C2SC(Nc3ccc(F)cc3)=NC2=O)c(OC)c1 [MMV084434]	7.76%
CCOc1cc2c(cc1OCC)C(c1cc(C)c(O)c(C)c1)NCC2.Cl (stereo not drawn) [MMV000483]	-22.26%
O=C1c2ccccc2C2=Nc3ccccc3SC(c3cccc(F)c3)C12 (stereo not drawn) [MMV006389]	-15.52%
COc1ccc(N2CCN(C(CNC(=O)C3CCCCC3)c3ccc4c(c3)OCO4)CC2)cc1 (stereo not drawn) [MMV019662]	-7.72%
O=C(Nc1ccc(C23CC4CC(CC(c5ccccc5)(C4)C2)C3)cc1)c1cccs1 [MMV007574]	-11.28%
Cc1ccc2c(C)nc(Nc3nc(C)cc(-c4ccccc4)n3)nc2c1 [MMV007041]	-2.18%
OC(CNC1CCCCC1)Cn1c2ccccc2c2ccccc21 (stereo not drawn) [MMV009063]	29.02%

SMILES	PGI (% of DB1127 at 10 uM)
O=c1c2c([nH]c3ccccc13)CCCC2 [MMV665843]	-19.31%
CCN1CCN(c2cc(C)c3cc(NC(=O)c4ccc(OC)c(OC)c4)ccc3n2)CC1 [MMV019074]	-7.35%
Cl.Oc1ccccc1CNCC12CC3CC(CC(C3)C1)C2 [MMV020788]	-57.58%
CCCCOC(=O)c1ccc(Nc2cc(C)nc3ccc(OC)cc23)cc1 [MMV665797]	0.71%
FC(F)(F)c1ccc(Nc2nnnc3ccccc23)cc1 [MMV665935]	-27.43%
COc1ccc(-c2cn3c(C(=O)Nc4ccccc4Cl)c(-c4ccccc4)c4c3n2CCCC4)cc1 [MMV020403]	8.35%
O=c1nc(C=Cc2ccc(Cl)cc2)oc2ccccc12 [MMV007977]	41.38%
CCOC(=O)c1cnc2ccc(OC)cc2c1NCc1ccccc1 [MMV665813]	-12.77%
COc1cccc(Nc2nc(NCCO)c3ccccc3n2)c1.Cl [MMV011944]	15.53%
CCOC(=O)c1cnc2c(C)cccc2c1Nc1ccc(C(C)=O)cc1 [MMV006250]	-32.91%
CCC(=O)Nc1nnc(Cc2ccc(OC)c(OC)c2)s1 [MMV020942]	-6.11%
O=C(NC1CCN(Cc2ccccc2)CC1)c1cc2nc(-c3ccc(Cl)s3)cc(C(F)(F)F)n2n1 [MMV396635]	-11.44%
Cc1cccc(-n2ncc3c(O)nc(-n4nc(C)cc4NC(=O)c4cc5ccccc5o4)nc32)c1 [MMV403679]	-25.18%
O=C(Nc1ccc(CN2CCOCC2)cc1)c1ccc(-c2ccc(Br)cc2)o1 [MMV665901]	-20.18%
COc1ccc(C2c3ccc4ccccc4c3Oc3ncn(CCCn4ccnc4)c(=N)c32)cc1OC (stereo not drawn) [MMV667490]	-1.19%
CCOC(=O)c1cnc2c(C)cc(C)cc2c1Nc1ccc(OC)c(OC)c1 [MMV008294]	-43.41%
Oc1ccc2ccccc2c1CNc1nc2ccccc2[nH]1 [MMV011832]	34.82%
COc1ccc2nc(C)cc(Nc3ccccc3O)c2c1 [MMV274073]	-1.78%
Cl.OC(CNCc1ccccc1)Cn1c2ccccc2c2ccccc21 (stereo not drawn) [MMV000839]	-2.41%
CCOC(=O)C1(Cc2ccccc2)CCN(Cc2cccc(OC)c2O)CC1 [MMV666109]	-8.56%

Reference: paper PMC4788259 (PLoS Neglected Tropical Diseases, 2016)
